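Test compounds were applied to cells in 96-well plates for 48 hours at 5 doses. At the TGI there is no net growth.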
Experiments:
Assay in all cases: inhibition of tumour cell growth, NCI panel, 48 h
HCT-116 colon = system: HCT-116 colon
NCI/ADR-RES ovarian = system: NCI/ADR-RES ovarian
HCT-15 colon = system: HCT-15 colon
KM12 colon = system: KM12 colon
HT29 colon = system: HT29 colon
UACC-257 melanoma = system: UACC-257 melanoma
TK-10 renal = system: TK-10 renal
HS 578T breast = system: HS 578T breast
A549 NSCLC = system: A549 NSCLC
OVCAR-8 ovarian = system: OVCAR-8 ovarian
OVCAR-5 ovarian = system: OVCAR-5 ovarian
M14 melanoma = system: M14 melanoma
MDA-MB-435 = system: MDA-MB-435
K-562 leukemia = system: K-562 leukemia
MDA-MB-231 breast = system: MDA-MB-231 breast
MALME-3M melanoma = system: MALME-3M melanoma
NCI-H226 lung = system: NCI-H226 lung
MCF7 breast = system: MCF7 breast
COLO 205 colon = system: COLO 205 colon

## CC(=O)Oc1ccn2nc(C)c(Cc3c(C)nn4ccc(OC(C)=O)cc34)c2c1
HCT-116 colon
  TGI: > 100 µM
NCI/ADR-RES ovarian
  TGI: > 100 µM
HCT-15 colon
  TGI: > 100 µM
KM12 colon
  TGI: > 100 µM
HT29 colon
  TGI: > 100 µM
UACC-257 melanoma
  TGI: > 100 µM
TK-10 renal
  TGI: > 100 µM
HS 578T breast
  TGI: > 100 µM
A549 NSCLC
  TGI: > 100 µM
OVCAR-8 ovarian
  TGI: > 100 µM
OVCAR-5 ovarian
  TGI: > 100 µM
M14 melanoma
  TGI: > 100 µM
MDA-MB-435
  TGI: 50.4 µM
K-562 leukemia
  TGI: > 100 µM
MDA-MB-231 breast
  TGI: > 100 µM
MALME-3M melanoma
  TGI: > 100 µM
NCI-H226 lung
  TGI: > 100 µM
MCF7 breast
  TGI: > 10 µM

## COc1cccc2c3cccc(OC)c3c3[nH]cnc3c12
COLO 205 colon
  TGI: 30.1 µM
HCT-116 colon
  TGI: 3.1 µM
NCI/ADR-RES ovarian
  TGI: 9.42 µM
HCT-15 colon
  TGI: 3.42 µM
KM12 colon
  TGI: 4.56 µM
HT29 colon
  TGI: 3 µM
UACC-257 melanoma
  TGI: 36.1 µM
TK-10 renal
  TGI: 3.91 µM
HS 578T breast
  TGI: 20.5 µM
A549 NSCLC
  TGI: 3.08 µM
OVCAR-5 ovarian
  TGI: 10 µM
M14 melanoma
  TGI: 3.08 µM
MDA-MB-435
  TGI: 4.1 µM
K-562 leukemia
  TGI: 7.16 µM
MDA-MB-231 breast
  TGI: 4.11 µM
MALME-3M melanoma
  TGI: 7.81 µM
NCI-H226 lung
  TGI: 32.7 µM
MCF7 breast
  TGI: 2.81 µM

## CC(C)=CCC/C(C)=C/CC/C(C)=C/[C@@H]1[C@@H](CO)[C@]1(C)CC/C=C(\C)CCC=C(C)C
COLO 205 colon
  TGI: > 100 µM
HCT-116 colon
  TGI: > 100 µM
NCI/ADR-RES ovarian
  TGI: 55 µM
HCT-15 colon
  TGI: > 100 µM
KM12 colon
  TGI: > 100 µM
HT29 colon
  TGI: > 100 µM
UACC-257 melanoma
  TGI: > 100 µM
TK-10 renal
  TGI: > 100 µM
HS 578T breast
  TGI: > 100 µM
A549 NSCLC
  TGI: > 100 µM
OVCAR-8 ovarian
  TGI: 32.7 µM
OVCAR-5 ovarian
  TGI: > 100 µM
M14 melanoma
  TGI: > 100 µM
MDA-MB-435
  TGI: > 100 µM
K-562 leukemia
  TGI: > 100 µM
MDA-MB-231 breast
  TGI: 52.2 µM
MALME-3M melanoma
  TGI: > 100 µM
NCI-H226 lung
  TGI: 44.5 µM

## Nc1ccc(-c2nc3cc(F)ccc3s2)cc1Br
COLO 205 colon
  TGI: > 100 µM
HCT-116 colon
  TGI: > 100 µM
NCI/ADR-RES ovarian
  TGI: > 100 µM
HCT-15 colon
  TGI: > 65.1 µM
KM12 colon
  TGI: > 100 µM
HT29 colon
  TGI: > 100 µM
UACC-257 melanoma
  TGI: > 100 µM
HS 578T breast
  TGI: > 100 µM
A549 NSCLC
  TGI: > 100 µM
OVCAR-8 ovarian
  TGI: > 100 µM
OVCAR-5 ovarian
  TGI: > 100 µM
M14 melanoma
  TGI: > 100 µM
MDA-MB-435
  TGI: > 100 µM
K-562 leukemia
  TGI: > 100 µM
MDA-MB-231 breast
  TGI: > 73.2 µM
MALME-3M melanoma
  TGI: > 100 µM
MCF7 breast
  TGI: 0.528 µM

## Brc1ccc(-c2ccc(-c3ccc(-c4ccc(Br)s4)s3)s2)s1
COLO 205 colon
  TGI: > 100 µM
HCT-116 colon
  TGI: > 100 µM
NCI/ADR-RES ovarian
  TGI: > 100 µM
HCT-15 colon
  TGI: > 100 µM
KM12 colon
  TGI: > 100 µM
HT29 colon
  TGI: > 100 µM
UACC-257 melanoma
  TGI: > 100 µM
TK-10 renal
  TGI: > 100 µM
HS 578T breast
  TGI: > 100 µM
A549 NSCLC
  TGI: > 100 µM
OVCAR-8 ovarian
  TGI: > 100 µM
OVCAR-5 ovarian
  TGI: > 100 µM
M14 melanoma
  TGI: > 100 µM
MDA-MB-435
  TGI: > 100 µM
K-562 leukemia
  TGI: > 100 µM
MDA-MB-231 breast
  TGI: > 100 µM
NCI-H226 lung
  TGI: > 100 µM
MCF7 breast
  TGI: > 100 µM

## C/C(=C/CNc1ncnc2c1ncn2CCC(=O)O)CO
COLO 205 colon
  TGI: > 100 µM
HCT-116 colon
  TGI: > 100 µM
NCI/ADR-RES ovarian
  TGI: > 100 µM
KM12 colon
  TGI: > 100 µM
HT29 colon
  TGI: > 100 µM
UACC-257 melanoma
  TGI: > 100 µM
TK-10 renal
  TGI: > 100 µM
HS 578T breast
  TGI: > 100 µM
A549 NSCLC
  TGI: > 100 µM
OVCAR-8 ovarian
  TGI: > 100 µM
OVCAR-5 ovarian
  TGI: > 100 µM
M14 melanoma
  TGI: > 100 µM
MDA-MB-435
  TGI: > 100 µM
K-562 leukemia
  TGI: > 100 µM
MDA-MB-231 breast
  TGI: > 100 µM
MALME-3M melanoma
  TGI: > 100 µM
NCI-H226 lung
  TGI: > 100 µM
MCF7 breast
  TGI: > 100 µM

## CC1=NN(c2cccc(Cl)c2)C(=N/c2nc3ccccc3s2)/C1=C\C=C\c1ccccc1
HCT-116 colon
  TGI: > 100 µM
NCI/ADR-RES ovarian
  TGI: > 100 µM
HCT-15 colon
  TGI: > 100 µM
KM12 colon
  TGI: > 100 µM
HT29 colon
  TGI: > 100 µM
UACC-257 melanoma
  TGI: > 100 µM
TK-10 renal
  TGI: > 100 µM
HS 578T breast
  TGI: 87.6 µM
OVCAR-8 ovarian
  TGI: > 100 µM
OVCAR-5 ovarian
  TGI: > 100 µM
M14 melanoma
  TGI: > 100 µM
MDA-MB-435
  TGI: > 100 µM
K-562 leukemia
  TGI: > 100 µM
NCI-H226 lung
  TGI: > 100 µM
MCF7 breast
  TGI: > 100 µM

## Nc1cc(OCc2ccccc2)c(OCc2ccccc2)cc1C=O
COLO 205 colon
  TGI: 77.3 µM
HCT-116 colon
  TGI: 96.8 µM
NCI/ADR-RES ovarian
  TGI: > 100 µM
HCT-15 colon
  TGI: > 100 µM
KM12 colon
  TGI: 92.2 µM
HT29 colon
  TGI: > 100 µM
UACC-257 melanoma
  TGI: > 100 µM
TK-10 renal
  TGI: 67.8 µM
HS 578T breast
  TGI: > 100 µM
A549 NSCLC
  TGI: > 100 µM
OVCAR-8 ovarian
  TGI: > 100 µM
OVCAR-5 ovarian
  TGI: > 100 µM
MDA-MB-435
  TGI: > 100 µM
K-562 leukemia
  TGI: > 100 µM
MDA-MB-231 breast
  TGI: > 100 µM
NCI-H226 lung
  TGI: > 100 µM
MCF7 breast
  TGI: > 100 µM

## CSc1sc(C)cc1-c1nsc(=O)o1
COLO 205 colon
  TGI: > 100 µM
HCT-116 colon
  TGI: > 100 µM
NCI/ADR-RES ovarian
  TGI: > 100 µM
HCT-15 colon
  TGI: > 100 µM
KM12 colon
  TGI: > 100 µM
HT29 colon
  TGI: > 100 µM
UACC-257 melanoma
  TGI: > 100 µM
HS 578T breast
  TGI: > 100 µM
A549 NSCLC
  TGI: > 100 µM
OVCAR-5 ovarian
  TGI: > 100 µM
M14 melanoma
  TGI: > 100 µM
MDA-MB-435
  TGI: > 100 µM
K-562 leukemia
  TGI: > 100 µM
MALME-3M melanoma
  TGI: > 100 µM
MCF7 breast
  TGI: > 100 µM

## C/C(Sc1ccccc1)=C1/CCCN(Cc2ccccc2)C1
COLO 205 colon
  TGI: 32.9 µM
NCI/ADR-RES ovarian
  TGI: 74.1 µM
HCT-15 colon
  TGI: 42.5 µM
KM12 colon
  TGI: 98.2 µM
HT29 colon
  TGI: > 100 µM
UACC-257 melanoma
  TGI: 44.6 µM
TK-10 renal
  TGI: 60.4 µM
HS 578T breast
  TGI: 41.4 µM
A549 NSCLC
  TGI: > 100 µM
OVCAR-8 ovarian
  TGI: > 100 µM
OVCAR-5 ovarian
  TGI: 67.5 µM
M14 melanoma
  TGI: 35 µM
MDA-MB-435
  TGI: 87.7 µM
K-562 leukemia
  TGI: 38.6 µM
MDA-MB-231 breast
  TGI: 76.5 µM
MALME-3M melanoma
  TGI: 28.6 µM
NCI-H226 lung
  TGI: 41.6 µM
MCF7 breast
  TGI: 57.5 µM

## CN(C)C(=O)c1nnsc1NN=O
COLO 205 colon
  TGI: > 100 µM
HCT-116 colon
  TGI: > 100 µM
NCI/ADR-RES ovarian
  TGI: > 100 µM
HCT-15 colon
  TGI: > 100 µM
KM12 colon
  TGI: > 100 µM
HT29 colon
  TGI: > 100 µM
UACC-257 melanoma
  TGI: > 100 µM
HS 578T breast
  TGI: > 100 µM
A549 NSCLC
  TGI: > 100 µM
OVCAR-8 ovarian
  TGI: > 100 µM
OVCAR-5 ovarian
  TGI: > 100 µM
M14 melanoma
  TGI: > 100 µM
MDA-MB-435
  TGI: > 100 µM
K-562 leukemia
  TGI: > 100 µM
MDA-MB-231 breast
  TGI: > 100 µM
MALME-3M melanoma
  TGI: > 100 µM
NCI-H226 lung
  TGI: > 100 µM
MCF7 breast
  TGI: > 100 µM

## CCOC(=O)CC/C(C)=N\n1c(Cc2ccc(Cl)cc2)n[nH]c1=O
HCT-116 colon
  TGI: > 100 µM
NCI/ADR-RES ovarian
  TGI: > 100 µM
HCT-15 colon
  TGI: > 100 µM
KM12 colon
  TGI: > 100 µM
HT29 colon
  TGI: > 100 µM
UACC-257 melanoma
  TGI: > 100 µM
TK-10 renal
  TGI: > 100 µM
HS 578T breast
  TGI: > 100 µM
A549 NSCLC
  TGI: > 100 µM
OVCAR-8 ovarian
  TGI: > 100 µM
OVCAR-5 ovarian
  TGI: 55.5 µM
M14 melanoma
  TGI: > 100 µM
MDA-MB-435
  TGI: > 100 µM
K-562 leukemia
  TGI: > 100 µM
MDA-MB-231 breast
  TGI: > 100 µM
MALME-3M melanoma
  TGI: > 100 µM
NCI-H226 lung
  TGI: > 100 µM
MCF7 breast
  TGI: > 100 µM

## NC(=S)SC1=NNC2(C(=O)N1)c1ccccc1-c1ccccc12
COLO 205 colon
  TGI: > 10 µM
HCT-116 colon
  TGI: > 10 µM
NCI/ADR-RES ovarian
  TGI: > 10 µM
HCT-15 colon
  TGI: > 10 µM
KM12 colon
  TGI: > 10 µM
HT29 colon
  TGI: > 10 µM
UACC-257 melanoma
  TGI: > 10 µM
TK-10 renal
  TGI: > 10 µM
HS 578T breast
  TGI: > 10 µM
A549 NSCLC
  TGI: > 10 µM
OVCAR-8 ovarian
  TGI: > 10 µM
M14 melanoma
  TGI: > 10 µM
MDA-MB-435
  TGI: > 10 µM
MDA-MB-231 breast
  TGI: > 10 µM
MALME-3M melanoma
  TGI: > 10 µM
NCI-H226 lung
  TGI: > 10 µM
MCF7 breast
  TGI: > 10 µM
